Data on 1 compound can be found in US20260191853A1, “METHOD OF TREATING DRUG-INDUCED BRADYARRHYTHMIA” (OSAKA UNIVERSITY, priority 2022, published 2026).

What all share (assay type): in vivo
One assay relates to Hartley guinea pigs. Briefly: Preventive effect on fingolimod-induced bradyarrhythmia in isoflurane-anesthetized guinea pig model. As for the experimental part: A solvent or compound (I) (free form) was administered by oral gavage at a dose of 1, 3, or 10 mg/kg (volume: 5 mL/kg) to Hartley guinea pigs (7 to 10 weeks old, male, available from Japan SLC, Inc.). After completion of the administration, each animal was subjected to anesthetic induction by inhalation of isoflurane (available from Pfizer Japan Inc.), and the animal was held on an operating table having a heater function. The trachea was incised, and a tracheal cannula (KN-375, available from Natsume Seisakusho Co., Ltd.) was inserted. The tracheal cannula was connected to a ventilator (SN-480-7, available from Shinano Seisakusho Co., Ltd.), and artificial respiration was controlled by supplying 100% oxygen at a volume of 10 mL and a ventilation rate of 60 times/minute. The solvent used was 0.5 w/v % methyl cellulose 400 solution (available from FUJIFILM Wako Pure Chemical Corporation). Isoflurane (available from Pfizer Japan Inc.) anesthesia (about 1 to 4%, carrier gas: 100% oxygen) was used for maintenance of anesthesia. A catheter (BD intramedic polyethylene tubing PE50, available from Becton, Dickinson and Company) charged with 50 units/mL heparin (available from AY PHARMACEUTICALS CO., LTD.) was inserted into each of the carotid artery and the jugular vein and placed in the blood vessel. Systemic blood pressure was measured with a high-sensitivity DC amplifier (AD-611J, available from NIHON KOHDEN CORPORATION) via the catheter placed in the carotid artery. Electrodes were attached to the body surface, and a body surface electrocardiogram was measured with a high-sensitivity amplifier (AB-611J, available from NIHON KOHDEN CORPORATION). Blood pressure and electrocardiogram data were acquired and analyzed with PowerLab/Labchart system (available from ADInstruments). Analysis items are systolic blood pressure, diastolic blood pressure, average blood pressure, heart rate, P-wave width, PR interval, QRS width, QT interval, and corrected QT interval. Corrected QT interval was calculated using the fridericia formula (QTc=QT interval/RR interval^1/3). After stabilization of each parameter, fingolimod hydrochloride (synthesized with reference to WO 2000/027798) was continuously administered intravenously at 0.1 mg/kg for 10 minutes via the catheter placed in the jugular vein, followed by observation of the presence or absence of the onset of bradyarrhythmia for 60 minutes. The solvent used was saline (available from Otsuka Pharmaceutical Factory, Inc.). Data were recorded and blood was collected 5, 10, 15, 20, 30, and 60 minutes after initiation of administration of fingolimod hydrochloride. The observation was terminated 60 minutes after initiation of the administration, and the animal was euthanized by exsanguination or intravenous administration of a large amount of pentobarbital or saturated potassium chloride solution under isoflurane anesthesia. Data were analyzed for atrial beating rate over time, ventricular beating rate over time, electrocardiographic parameters, the presence or absence of the onset of atrioventricular block, and plasma concentrations of compound (I), fingolimod, and fingolimod phosphorylated form. The plasma was collected by centrifuging the blood and cryopreserved at about −20° C. After thawing of the plasma, plasma drug concentrations were measured using LC/MS/MS after deproteinization with acetonitrile.
Atrioventricular block was defined as follows.
Second-degree atrioventricular block: atrial activation wave (P wave) is normal, which is followed by or not followed by ventricular activation wave (QRS wave).
Third-degree atrioventricular block: there is no electrical conduction between the atrium and the ventricle, and atrial and ventricular activation waves are generated independently, resulting in atrioventricular dissociation.
In FIG. 1, the measurements are shown as mean±standard error. […]

In assay [1] the test system is genetically modified animal model. The experiment in a line: Sinus arrest and atrioventricular block in a genetically modified animal model.
The next assay deals with Wistar rats. Briefly: Therapeutic effect on propranolol-induced bradyarrhythmia in conscious rat (telemetry). The following applies: compound (I) dihydrochloride 1 mg/kg i.p. about 30 min after propranolol 1 mg/kg i.p.; awake rats; FIG. 8. From the text: Wistar rats (10 weeks old, male, available from Kiwa Laboratory Animals Co., Ltd.) were anesthetized by inhalation of Sevofrane (available from Maruishi Pharmaceutical Co., Ltd.) and held on an operating table. An implantable telemetry transmitter ETA-F10 (DSI) was placed subcutaneously in each rat, and one lead was fixed to each of the upper right chest and the left lower chest. After being fully awakened, the rat was placed in a cage on the receiving board, and a body surface electrocardiogram was measured with a high-sensitivity amplifier. Electrocardiogram data were acquired and analyzed with LabChart Pro & LabChart module (available from Bio Research Center Co., Ltd.). After stabilization of the heart rate, propranolol (Inderal Injection, available from AstraZeneca K.K.) was administered by intraperitoneal injection at a dose of 1 mg/kg. After the elapse of about 30 minutes, the stabilization of the heart rate was determined, and then saline or compound (I) dihydrochloride was administered by intraperitoneal injection at a dose of 1 mg/kg. Thirty minutes after the administration, the heart rate in a stable state was measured for evaluation. The solvent used was saline (available from Otsuka Pharmaceutical Factory, Inc.). […]

The subject of the next assay is beagle dog. Briefly: Therapeutic effect on propranolol-induced bradycardia in conscious beagle dog. The settings on record: compound (I) dihydrochloride 0.01, 0.1, 1 mg/kg bolus i.v., FIG. 9. As for the experimental part: A peripheral venous path was secured with an 18 G needle in the right forelimb of a beagle dog (body weight: about 10 kg, female, available from Oriental Yeast Co., Ltd.), and then held on an operating table. Heart rate was monitored with an electrocardiographic monitor worn on the animal. A manchette was worn on the left forelimb, and blood pressure was measured with an Omron automatic electronic sphygmomanometer. The left ventricular function was measured by the M-mode method using the echocardiographic left parasternal short-axis two-chamber view. After stabilization of the heart rate, propranolol (Inderal Injection, available from AstraZeneca K.K.) was administered by bolus intravenous injection at a dose of 2 mg/kg, followed by continuous intravenous injection at a dose of 1 mg/minute with a syringe pump. After the elapse of about 30 minutes, the stabilization of the heart rate was determined, and then saline and compound (I) dihydrochloride (0.01 mg/kg, 0.1 mg/kg, 1 mg/kg) were administered by bolus intravenous injection at 10-minute intervals. About 10 minutes after each administration, heart rate, blood pressure, and left ventricular function were measured and evaluated in a stable state. The solvent used was saline (available from Otsuka Pharmaceutical Factory, Inc.).

“Also recorded” adds a separate entry of the source.

Turning to `Cc1cc(CO)nc2cc3c(cc12)OC(C)(C)[C@H](O)[C@H]3NCCc1ccccc1` [Compound (I), (3R,4S)-7-Hydroxymethyl-2,2,9-trimethyl-4-(phenethylamino)-3,4-dihydro-2H-pyrano[2,3-g]quinoline-3-ol], the “cases in which fingolimod-induced atrioventricular block was not observed” value with Hartley guinea pigs (1 mg/kg oral gavage, four cases per group) was 75%; in the assay on Hartley guinea pigs (3 mg/kg oral gavage, four cases per group), 75%. In the assay with Hartley guinea pigs (3 mg/kg oral gavage, fingolimod hydrochloride 0.1 mg/kg i.v.), the “fingolimod-induced bradycardia (ventricular beating rate)” value is listed as “almost restored”. For the same compound, the “fingolimod-induced bradycardia (ventricular beating rate / heart rate)” value in the assay on Hartley guinea pigs (10 mg/kg oral gavage, fingolimod hydrochloride 0.1 mg/kg i.v.) is reported as “completely restored; also recorded: completely resolved”; in the assay on Hartley guinea pigs (compound (I) 1, 3, 10 mg/kg oral gavage before fingolimod hydrochloride 0.1 mg/kg i.v. over 10 min, FIG. 1), “improved in a dose-dependent manner; also recorded: prevented a reduction in heart rate”. Also, in the assay with Hartley guinea pigs (10 mg/kg oral gavage, four cases per group), the “cases in which fingolimod-induced atrioventricular block was suppressed” value worked out at 100%. Also, the “onset of fingolimod-induced bradyarrhythmia (atrioventricular block)” value with Hartley guinea pigs (1, 3, 10 mg/kg oral gavage, FIG. 1 and FIG. 2) was “prevented the onset of fingolimod-induced bradyarrhythmia (atrioventricular block) in a dose-dependent manner”. In the assay with Hartley guinea pigs (compound (I) oral gavage 1-10 mg/kg), the “fingolimod-induced prolongation of QT time” value was “almost completely suppressed”. For the same compound, in assay [1], the “efficacy for sinus arrest and atrioventricular block” value is “effective”. Also, the “propranolol-induced bradycardia (heart rate)” value in the assay on Wistar rats and in the assay on beagle dog (propranolol 2 mg/kg bolus then 1 mg/minute i.v.) was “improved bradycardia” in each case. The “effect on cardiac contraction inhibitory action of propranolol (left ventricular ejection fraction)” value with beagle dog is “did not affect”.
